What was measured:
barnyardgrass [1] = test: Test B pre-/postemergence herbicide test; format: in vivo, Echinochloa crus-galli
Procedure, shortened: (§1)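 Visual rating, 0 (no effect) to 100 (complete control), versus untreated controls after 13–15 d in greenhouse. Pre- and postemergence applications (postemergence plants 2–18 cm, 1–4 leaves); flooded paddy arm at 2-leaf stage. Compounds in non-phytotoxic solvent plus surfactant.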

Surinam grass = test: Test B pre-/postemergence herbicide test; format: in vivo, Urochloa decumbens
Procedure, shortened: (§2)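 Seeds were planted and treated preemergence with compounds formulated in a non-phytotoxic solvent mixture containing surfactant, while plants at the 1- to 4-leaf stage (2 to 18 cm) received postemergence sprays. Flooded paddy plants were grown to the 2-leaf stage. After 13 to 15 days in a greenhouse, injury was visually rated 0–100 against untreated controls.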

cocklebur = test: Test B pre-/postemergence herbicide test; format: in vivo, Xanthium strumarium
Procedure, shortened: as §1

corn = test: Test B pre-/postemergence herbicide test; format: in vivo, Zea mays
Procedure, shortened: as §2

large crabgrass = test: Test B pre-/postemergence herbicide test; format: in vivo, Digitaria sanguinalis
Procedure, shortened: as §2

giant foxtail = test: Test B pre-/postemergence herbicide test; format: in vivo, Setaria faberi
Procedure, shortened: as §2

lambsquarters = test: Test B pre-/postemergence herbicide test; format: in vivo, Chenopodium album
Procedure, shortened: as §2

morningglory = test: Test B pre-/postemergence herbicide test; format: in vivo, Ipomoea coccinea
Procedure, shortened: as §1

pigweed = test: Test B pre-/postemergence herbicide test; format: in vivo, Amaranthus retroflexus
Procedure, shortened: as §2

velvetleaf = test: Test B pre-/postemergence herbicide test; format: in vivo, Abutilon theophrasti
Procedure, shortened: as §2

blackgrass = test: Test B postemergence herbicide test; format: in vivo, Alopecurus myosuroides
Procedure, shortened: (§3)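 Visual ratings, 0 (no effect) to 100 (complete control), made versus controls after 13–15 d greenhouse. Paddy plants treated at 2-leaf stage; postemergence plants at 1- to 4-leaf stage, 2–18 cm tall.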

wheat = test: Test B postemergence herbicide test; format: in vivo, Triticum aestivum; parameters: key to Wheat plant response rating: 0 = no effect, 100 = complete control
Procedure, shortened: (§4)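 After treating 2-leaf paddy plants or 2–18 cm postemergence plants (1 to 4 leaves) with formulated chemical, researchers kept them in a greenhouse for 13–15 days. Effects were judged visually versus controls: 0 indicates none, 100 total control.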

wild oat = test: Test B postemergence herbicide test; format: in vivo, Avena fatua
Procedure, shortened: as §4

rice = test: Test B flooded paddy test; format: in vivo, Oryza sativa; conditions: scale 0 to 100 (0 no effect, 100 complete control)
Procedure, shortened: as §3

[2] = test system: small flower umbrella sedge; test: Test B flooded paddy test; format: in vivo, Cyperus difformis; conditions: scale 0 to 100 (0 no effect, 100 complete control)
Procedure, shortened: as §3

ducksalad = test: Test B flooded paddy test; format: in vivo, Heteranthera limosa; conditions: scale 0 to 100 (0 no effect, 100 complete control)
Procedure, shortened: as §3

barnyardgrass [3] = test: Test B flooded paddy test; format: in vivo, Echinochloa crus-galli; conditions: scale 0 to 100 (0 no effect, 100 complete control)
Procedure, shortened: as §3

[4] = Postemergence, 125 g ai/ha, scale 0 (no effect) to 100 (complete control)
[5] = Postemergence, 500 g ai/ha, scale 0 (no effect) to 100 (complete control)
[6] = postemergence, 125 g ai/ha, scale 0 to 100
[7] = 500 g ai/ha, scale 0 to 100, 0 no effect, 100 complete control, preemergence
[8] = 125 g ai/ha, 0 is no effect, 100 is complete control, preemergence
[9] = 125 g ai/ha, visual rating, scale 0 (no effect) to 100 (complete control), postemergence
[10] = postemergence, 500 g ai/ha, scale 0 to 100, 0 is no effect, 100 is complete control

For Cc1nn(C(C)(C)C)nc1C(=O)Nc1cccc(C(=O)N(C)C)n1 [Compound 436], the “Barnyardgrass plant response rating” value (barnyardgrass [1]; [4]) was 0, the “Barnyardgrass plant response rating” value (barnyardgrass [1]; [5]) was 0 and the “Surinam Grass plant response rating” value (Surinam grass; [5]) was 0. The “Surinam Grass plant response rating” value (Surinam grass; [6]) was 0, the “Cocklebur plant response rating” value (cocklebur; [5]) was 10 and the “Cocklebur plant response rating” value (cocklebur; [6]) was 0. The “Corn plant response rating” value (corn; [5]) was 10, the “Corn plant response rating” value (corn; [6]) was 0 and the “Crabgrass, Large plant response rating” value (large crabgrass; [5]) was 0. For the same compound, the “Crabgrass, Large plant response rating” value (large crabgrass; [6]) was 0, the “Foxtail, Giant plant response rating” value (giant foxtail; [5]) was 0 and the “Foxtail, Giant plant response rating” value (giant foxtail; [6]) was 0. The “Lambsquarters plant response rating” value (lambsquarters; [5]) was 0, the “Lambsquarters plant response rating” value (lambsquarters; [6]) was 0 and the “Morningglory plant response rating” value (morningglory; [5]) was 0. The “Morningglory plant response rating” value (morningglory; [6]) was 0, the “Pigweed plant response rating” value (pigweed; [5]) was 10 and the “Pigweed plant response rating” value (pigweed; [6]) was 0. The “Velvetleaf plant response rating” value (velvetleaf; [5]) was 30, the “Velvetleaf plant response rating” value (velvetleaf; [6]) was 0 and the “Blackgrass plant response rating” value (blackgrass; [5]) was 0. The “Blackgrass plant response rating” value (blackgrass; [6]) was 0, the “Wheat plant response rating” value (wheat; [7]) was 20 and the “Wheat plant response rating” value (wheat; [5]) was 20. For the same compound, the “Wheat plant response rating” value (wheat; [6]) was 10, the “Oat, Wild plant response rating” value (wild oat; [5]) was 30 and the “Oat, Wild plant response rating” value (wild oat; [6]) was 10. The “Rice plant response rating” value (rice; 125 g ai/ha) was 0, the “Sedge, Umbrella plant response rating” value ([2]; 125 g ai/ha) was 0 and the “Ducksalad plant response rating” value (ducksalad; 125 g ai/ha) was 0. The “Barnyardgrass plant response rating” value (barnyardgrass [3]; 125 g ai/ha) was 0.

For C=CCNC(=O)c1cccc(NC(=O)c2nn(C(C)(C)C)nc2C)n1 [Compound 438], the “Barnyardgrass plant response rating” value (barnyardgrass [1]; [4]) was 0, the “Barnyardgrass plant response rating” value (barnyardgrass [1]; [5]) was 0 and the “Surinam Grass plant response rating” value (Surinam grass; [5]) was 0. The “Surinam Grass plant response rating” value (Surinam grass; [6]) was 0, the “Cocklebur plant response rating” value (cocklebur; [5]) was 20 and the “Cocklebur plant response rating” value (cocklebur; [6]) was 20. For the same compound, the “Corn plant response rating” value (corn; [5]) was 40, the “Corn plant response rating” value (corn; [6]) was 30 and the “Crabgrass, Large plant response rating” value (large crabgrass; [5]) was 0. The “Crabgrass, Large plant response rating” value (large crabgrass; [6]) was 0, the “Foxtail, Giant plant response rating” value (giant foxtail; [5]) was 20 and the “Foxtail, Giant plant response rating” value (giant foxtail; [6]) was 0. For the same compound, the “Lambsquarters plant response rating” value (lambsquarters; [5]) was 10, the “Lambsquarters plant response rating” value (lambsquarters; [6]) was 10 and the “Morningglory plant response rating” value (morningglory; [5]) was 50. For the same compound, the “Morningglory plant response rating” value (morningglory; [6]) was 40, the “Pigweed plant response rating” value (pigweed; [5]) was 30 and the “Pigweed plant response rating” value (pigweed; [6]) was 10. The “Velvetleaf plant response rating” value (velvetleaf; [5]) was 30, the “Velvetleaf plant response rating” value (velvetleaf; [6]) was 0 and the “Blackgrass plant response rating” value (blackgrass; [5]) was 30. The “Blackgrass plant response rating” value (blackgrass; [6]) was 20, the “Wheat plant response rating” value (wheat; [7]) was 0 and the “Wheat plant response rating” value (wheat; [5]) was 30. For the same compound, the “Wheat plant response rating” value (wheat; [6]) was 20, the “Oat, Wild plant response rating” value (wild oat; [5]) was 40 and the “Oat, Wild plant response rating” value (wild oat; [6]) was 30. The “Rice plant response rating” value (rice; 125 g ai/ha) was 0, the “Sedge, Umbrella plant response rating” value ([2]; 125 g ai/ha) was 0 and the “Ducksalad plant response rating” value (ducksalad; 125 g ai/ha) was 0. For the same compound, the “Barnyardgrass plant response rating” value (barnyardgrass [3]; 125 g ai/ha) was 0.

In the case of CCNC(=O)c1cccc(NC(=O)c2nn(C(C)(C)C)nc2C)n1 [Compound 437], the “Barnyardgrass plant response rating” value (barnyardgrass [1]; [4]) was 0, the “Barnyardgrass plant response rating” value (barnyardgrass [1]; [5]) was 30 and the “Surinam Grass plant response rating” value (Surinam grass; [5]) was 20. The “Surinam Grass plant response rating” value (Surinam grass; [6]) was 0, the “Cocklebur plant response rating” value (cocklebur; [5]) was 30 and the “Cocklebur plant response rating” value (cocklebur; [6]) was 10. For the same compound, the “Corn plant response rating” value (corn; [5]) was 30, the “Corn plant response rating” value (corn; [6]) was 0 and the “Crabgrass, Large plant response rating” value (large crabgrass; [5]) was 20. The “Crabgrass, Large plant response rating” value (large crabgrass; [6]) was 0, the “Foxtail, Giant plant response rating” value (giant foxtail; [5]) was 30 and the “Foxtail, Giant plant response rating” value (giant foxtail; [6]) was 0. For the same compound, the “Lambsquarters plant response rating” value (lambsquarters; [5]) was 40, the “Lambsquarters plant response rating” value (lambsquarters; [6]) was 20 and the “Morningglory plant response rating” value (morningglory; [5]) was 30. The “Morningglory plant response rating” value (morningglory; [6]) was 0, the “Pigweed plant response rating” value (pigweed; [5]) was 30 and the “Pigweed plant response rating” value (pigweed; [6]) was 20. For the same compound, the “Velvetleaf plant response rating” value (velvetleaf; [5]) was 20, the “Velvetleaf plant response rating” value (velvetleaf; [6]) was 0 and the “Blackgrass plant response rating” value (blackgrass; [5]) was 30. The “Blackgrass plant response rating” value (blackgrass; [6]) was 0, the “Wheat plant response rating” value (wheat; [7]) was 0 and the “Wheat plant response rating” value (wheat; [5]) was 20. The “Oat, Wild plant response rating” value (wild oat; [5]) was 30, the “Rice plant response rating” value (rice; 125 g ai/ha) was 0 and the “Sedge, Umbrella plant response rating” value ([2]; 125 g ai/ha) was 0. The “Ducksalad plant response rating” value (ducksalad; 125 g ai/ha) was 0 and the “Barnyardgrass plant response rating” value (barnyardgrass [3]; 125 g ai/ha) was 0.

In the case of CCc1nn(C(C)(C)CC)nc1C(=O)Nc1cccc(OC(F)(F)F)c1 [Compound 374], the “Plant response rating (0 to 100 scale), Barnyardgrass” value (barnyardgrass [1]; [8]) was 0, the “Barnyardgrass plant response rating” value (barnyardgrass [1]; [9]) was 10 and the “Barnyardgrass plant response rating” value (barnyardgrass [1]; [10]) was 20. For the same compound, the “Plant response rating (0 to 100 scale), Surinam Grass” value (Surinam grass; [8]) was 10, the “Surinam Grass plant response rating” value (Surinam grass; [9]) was 10 and the “Surinam Grass plant response rating” value (Surinam grass; [5]) was 20. The “Plant response rating (0 to 100 scale), Cocklebur” value (cocklebur; [8]) was 0, the “Cocklebur plant response rating” value (cocklebur; [9]) was 0 and the “Cocklebur plant response rating” value (cocklebur; [10]) was 30. The “Plant response rating (0 to 100 scale), Corn” value (corn; [8]) was 0, the “Corn plant response rating” value (corn; [9]) was 10 and the “Corn plant response rating” value (corn; [10]) was 20. The “Plant response rating (0 to 100 scale), Crabgrass, Large” value (large crabgrass; [8]) was 0, the “Crabgrass, Large plant response rating” value (large crabgrass; [9]) was 20 and the “Crabgrass, Large plant response rating” value (large crabgrass; [10]) was 20. For the same compound, the “Plant response rating (0 to 100 scale), Foxtail, Giant” value (giant foxtail; [8]) was 10, the “Foxtail, Giant plant response rating” value (giant foxtail; [9]) was 20 and the “Foxtail, Giant plant response rating” value (giant foxtail; [10]) was 20. For the same compound, the “Lambsquarters plant response rating” value (lambsquarters; [9]) was 10, the “Lambsquarters plant response rating” value (lambsquarters; [5]) was 70 and the “Plant response rating (0 to 100 scale), Morningglory” value (morningglory; [8]) was 0. For the same compound, the “Morningglory plant response rating” value (morningglory; [9]) was 20, the “Morningglory plant response rating” value (morningglory; [5]) was 20 and the “Plant response rating (0 to 100 scale), Pigweed” value (pigweed; [8]) was 30. The “Pigweed plant response rating” value (pigweed; [9]) was 30, the “Pigweed plant response rating” value (pigweed; [5]) was 70 and the “Plant response rating (0 to 100 scale), Velvetleaf” value (velvetleaf; [8]) was 0. For the same compound, the “Velvetleaf plant response rating” value (velvetleaf; [9]) was 10, the “Velvetleaf plant response rating” value (velvetleaf; [5]) was 20 and the “Blackgrass plant response rating” value (blackgrass; [9]) was 10. The “Blackgrass plant response rating” value (blackgrass; [10]) was 30, the “Wheat plant response rating” value (wheat; [9]) was 0 and the “Wheat plant response rating” value (wheat; [7]) was 0. The “Wheat plant response rating” value (wheat; [5]) was 20, the “Oat, Wild plant response rating” value (wild oat; [9]) was 20 and the “Oat, Wild plant response rating” value (wild oat; [5]) was 40. For the same compound, the “Rice plant response rating” value (rice; 1000 g ai/ha) was 20, the “Sedge, Umbrella plant response rating” value ([2]; 1000 g ai/ha) was 0 and the “Ducksalad plant response rating” value (ducksalad; 1000 g ai/ha) was 50. The “Barnyardgrass plant response rating” value (barnyardgrass [3]; 1000 g ai/ha) was 40.

From patent US20060069132A1, “Azolecarboxamide herbicides” (priority 2004, published 2006)
